A short description of data set [1]: Pharmacokinetic studies with 14C-paclitaxel or 3H-PLGA. The following applies: male, Sprague Dawley, rat, in vivo. On the set-up: species or system Sprague Dawley rats. As for the experimental part:
12 male Sprague Dawley rats weighing approximately 250 g with bilateral jugular catheters were obtained from Charles River Laboratories (Wilmington, Mass.). […] 200-500 μL of blood was collected via the right catheter at 1, 3, 6, 9 and 24 h after injection (n=6). In a separate study to assess targeted lipid-polymeric nanoparticle polymer levels in circulation, 400 μl, of NPs synthesized with ^3H-PLGA was injected in saline (100 μCi/mL) and 100 μL of blood was collected at 1, 3, 6, 9, 24, 48, 96 and 120 h after injection (n=6). Blood radioactivity was quantified as disintegrations per minute (DPM) using the PerkinElmer Tri-Carb 2810TR liquid scintillation analyzer.
Blood and tissue samples were processed as described by Chan J M, et al. Methods Mol. Biol. 2010; 624:163-175, with modifications. Solvable tissue solubilizer and Hionic-Fluor scintillation cocktail were purchased from PerkinElmer (Waltham, Mass.). All samples were weighed before processing. To prepare blood samples for radioisotope counting, 1.5 mL of tissue solubilizer was added to ≦0.5 mL blood and incubated at 55-60° C. for 2 h to dissolve the blood samples. Next, 50 μL of 0.5 mol/L EDTA-di-sodium salt solution was added to reduce foaming and 0.5 mL of hydrogen peroxide (300 g/L) was added dropwise with gentle agitation. Samples were further incubated at 55-60° C. for 1 h. To prepare tissue samples for radioisotope counting, kidney, spleen, liver, heart, and lung tissues (≦150 mg) were similarly processed, except with 4.0 mL of tissue solubilizer instead. Finally, 16 mL of Hionic-Fluor scintillation cocktail was added to both blood and tissue samples, and samples were subjected to temperature and light-adaptation for 1 h before counting. Sample radioactivity was read as disintegrations per minute (DPM) of either ^14C or ^3H radioisotopes using the PerkinElmer Tri-Carb 2810TR liquid scintillation analyzer, and standardized as DPM per gram of tissue or blood (DPM/g) based on the weight of the sample. […]

A further data set is described as follows: in vivo. To be noted: male, Swiss albino, mouse, in vivo, iv. On the procedure: (§1) Clinical monitoring over seven days was carried out for any signs of adverse effects.
(§2) At the end of the study, animals were sacrificed by CO2 inhalation. Gross necropsy was performed and H&E sections of the major organs (liver, lung, heart, spleen, kidney, nerves) were examined for any signs of toxicity.

The test system of another data set is Swiss albino mice. The experiment in a line: in vivo. On the procedure: as §1, §2
Data set [2] has as its system Matrigel. The experiment in a line: Phage clone binding to Matrigel (anti-M13 ELISA, ABTS absorbance). To be noted: ABTS absorbance 405 nm vs 490 nm, 10^10 p.f.u. per clone. As for the experimental part:
96-well plates were coated with 100 μL 1/50 dilutions of Matrigel in TBS overnight at 4° C., or TBS buffer only. Plates were blocked with 3% BSA/TBS for 2 h at RT and washed three times. 10^10 p.f.u. of each phage clone was added in 0.5% TBST in triplicate to either Matrigel or BSA-coated wells. Bound phage particles were detected with peroxidase-conjugated mouse anti-M13 monoclonal antibodies at 1/5000 dilution (Amersham Pharmacia Biotech, Piscataway, N.J.). After a 1 h incubation, the reaction was developed with 2,2′-azino-bis(3-ethylbenzthiazoline-6-sulphonic acid) (ABTS) (Amersham) and the absorbance was read at 405 nm against a reference wavelength of 490 nm with a SpectraMax Plus 384 Microplate reader (Molecular Devices, Sunnyvale, Calif.).
(In an ELISA, binding on a coated surface is turned into a signal by an enzyme label.)

For data set [3], the target named is Matrigel. Description: Sequence-specific competition binding of phage clones against synthetic peptide equivalents. To be noted: synthetic peptide vs cognate phage on Matrigel, n=3. On the procedure:
Matrigel-coated and blocked 96-well plates were incubated in triplicate with 10^−5-10^−10 M peptide concentrations and 10^9 pfu of phage in 100 μL 0.5% TEST. After 1 h at RT, bound phages were labeled with anti-M13 mAb and color was developed and detected using ABTS absorbance (405-490 nm). Peptide inhibition curves were normalized on a percentage scale to provide an estimate of the IC50, which was calculated using a dose-response curve fit using the Origin 8 data analysis software (Northampton, Mass.) by the formula:
Y=Bottom+(Top−Bottom)/(1+10̂((Log IC50−X)*HillSlope)).

Data set [4] concerns Matrigel. The experiment in a line: Phage titer count analysis on Matrigel. The format is binding. The following applies: phage input 10^12/mL p.f.u., n=3. An excerpt: (§3) In a sequence-specific competition assay, the context-dependence of the phage towards the peptide-collagen IV binding interaction was investigated. […] The binding of phage C-11 was investigated in three independent titer count analyses. Phage titers of C-11 were compared against the library (R0) for binding to Matrigel and collagen IV with an initial phage input of 10^12/mL plaque forming units (p.f.u.).

For the next data set, the system named is collagen IV. Description: Phage titer count analysis on collagen IV. The format is binding, human. To be noted: phage input 10^12/mL p.f.u., n=3.
Excerpt: as §3

Where [5] appears, read: 168 h after single i.v. dose, paclitaxel 10 mg/kg, targeted nanoparticles 35 mg/kg, mean ± SD n=6.

pIC50: −log10 of the molar value.

Turning to `CC(=O)O[C@H]1C(=O)[C@@]2(C)[C@H]([C@H](OC(=O)c3ccccc3)[C@]3(O)C[C@H](OC(=O)[C@H](O)[C@@H](NC(=O)c4ccccc4)c4ccccc4)C(C)=C1C3(C)C)[C@]1(OC(C)=O)CO[C@@H]1C[C@@H]2O` [paclitaxel], the “time after which levels in circulation could not be further detected” value in data set [1] is listed as 24 h. Moreover, in data set [1] (iv), the “t1/2α (h), half-life of distribution phase” value amounted to 0.64 h and the “t1/2β (h), half-life of elimination phase” value was 8.02 h. The MTD in the data set “in vivo” is 10 mg/kg. Also, in the data set on Swiss albino mice (10 mg/kg, platelet count<400×10^9/L in two mice), the “hematological finding at day 7” value is recorded as “signs of mild thrombocytopenia”. In the data set on Swiss albino mice (15 mg/kg dose, 1.2 mg/mL, mice i.v.), the lethality result is recorded as “immediate death of two mice”. For the same molecule, in the data set on Swiss albino mice (setting [5]), the “ALP, alkaline phosphatase” value was determined as 41.7 ± 1.77 U/L; the “Baso, basophils” value came to 0.140 ± 0.078%; the “Eo, eosinophils” value came to 0.0023 ± 0.004%; the “HGB, hemoglobin” value was 8.81 ± 0.49 mmol/L. In the data set on Swiss albino mice (setting [5]), the “LYMPH, lymphocytes” value was 0.69 ± 0.13%; the “MCH, mean cell hemoglobin” value is 17.1 ± 0.679 pg; the MCHC is 17.9 ± 0.47 mmol/L; the “MCV, mean cell volume” value is given as 59.5 ± 1.55 fL. Moreover, in the data set with Swiss albino mice (setting [5]), the “Mono, monocytes” value is recorded as 0.167 ± 0.064%; the “NEUT, neutrophils” value is 0.002 ± 0.002%; the “PLT, platelets” value is listed as 1026 ± 533 ×10^9/L; the “RBC, red blood cells” value is given as 8.30 ± 0.598 ×10^12/L. Besides, in the data set on Swiss albino mice (setting [5]), the “WBC, white blood cells” value is reported as 2.05 ± 0.454 ×10^9/L. Moreover, in the data set with Swiss albino mice (mouse, in vivo), the “ALT, alanine aminotransferase” value was determined as 61.01 ± 6.10 U/L and the “AST, aspartate aminotransferase” value came out at 119.83 ± 8.23 U/L.

“KIFVWPY [Clone A-9, heptapeptide from phage display against collagen IV; phage clone and synthetic peptide equivalent]”: in the data set on Matrigel [2], the “binding to Matrigel compared with the random library (R0)” value is listed as “best candidates”. For the same molecule, the pIC50 on Matrigel [3] was 6.26.

Consider “KIWKLPQ [Clone C-10, heptapeptide from phage display against collagen IV; phage clone and synthetic peptide equivalent]”, for which, in the data set on Matrigel [2], the “binding to Matrigel compared with the random library (R0)” value is on record as “best candidates”. Moreover, the negative logarithm of the IC50 (pIC50) at Matrigel [3] is 6.04.

As for “KLWVLPK [Clone C-11, heptapeptide from phage display against collagen IV; phage clone and synthetic peptide equivalent]”, the “binding to Matrigel compared with the random library (R0)” value with Matrigel [2] is given as “best candidates”. The pIC50 on Matrigel [3] is 6.93. Also, the “Matrigel binding compared to the library (phage titer)” value with Matrigel [4] is given as “approximately 300 fold”. The “collagen IV binding compared to the library (phage titer)” value in the data set with collagen IV was “approximately 900 fold”.

Consider “KVWSLPQ [Clone A-8, heptapeptide from phage display against collagen IV; phage clone and synthetic peptide equivalent]”, for which, in the data set on Matrigel [2], the “binding to Matrigel compared with the random library (R0)” value is recorded as “best candidates”. Further, the pIC50 at Matrigel [3] is 5.92.

What is called pIC50 is the negative decadic logarithm of the IC50, by convention in mol/L.

The values are drawn from patent publication US20110143993A1, “ENDOTHELIAL BASEMENT MEMBRANE TARGETING PEPTIDE LIGANDS” (The Brigham and Women's Hospital, Inc., priority 2009, published 2011).
